{"source": "patent US9480235B1", "about": "“Red lettuces with increased anthocyanins, polyphenols, and oxygen radical absorption capacity” (Rutgers, The State University of New Jersey, priority 2012, dated 2016)", "type_in_all_cases": "in vivo, C57Bl/6J mice", "key": {"[1]": {"tested_on": "diet induced obese hyperglycemic mice", "assay": "Experiment 1: fasting blood glucose after single oral NFR-S-4 lettuce", "conditions": "for FBG: mean +/- SD", "procedure": "(§1) Five-week-old male C57Bl/6J mice (Jackson Labs) were housed in cages (five mice to a cage) at 25° C. with 12-h light-dark cycle. Mice were given ad libitum access to food and water and after an acclimatization period of one week, rodent diet was switched from chow (Purina, No. 5015) to a very high fat diet (VHFD) containing 60% kcal fat (D12492, Research Diets, New Brunswick, N.J.) for a at least 12 weeks to induce obesity, insulin resistance, and hyperglycemia (Surwit et al., Clin. Exp. Met., 44:645-51, 1995). Weekly food intake per cage and individual body weight measurements were determined throughout the study. All mice were introduced to intragastric feeding prior to treatment. During this time, a gavage administration of 0.2 mL of double distilled water was performed daily for 2-3 days prior to the scheduled experiments.\n(§2) For all experiments, mice were randomly divided into fasting blood glucose (FBG)-balanced experimental groups. Lettuce leaves were lyophilized powdered and suspended in 66% labrasol or water for the aqueous extract and Metformin® antidiabetic drug was dissolved in water. Blood glucose levels were measured using an AlphaTrak® handheld glucometer (Abbott Labs Inc., Abbott Park, Ill.) using test strips.\nIn experiment 1, following a 4 hour fasting period, FBG was measured immediately prior to treatment and 6 hours post treatment. […]\n(§3) Statistically significant differences between were analyzed by ANOVA followed by Dunnett's multiple comparisons test and/or paired t-tests (one tail) comparing FBG levels immediately prior to treatment (0 h) and 6 hours after treatment (Table 5). A p-value <0.05 was considered statistically significant."}, "[2]": {"tested_on": "diet induced obese hyperglycemic mice", "assay": "Experiment 3: fasting blood glucose after single oral S-13 lettuce", "procedure": "as §1, §2\nIn experiment 3, mice were treated using an oral ingestion of vehicle (66% labrasol), S-13 lettuce (100, 300 or 450 mg/kg), green Romaine lettuce (450 mg/kg, commercially available), or Metformin® antidiabetic drug (300 mg/kg) (n=4-5 Following a 4 h fasting period, FBG was measured immediately prior to treatment and 6 h post treatment (Table 7).\nas §3"}, "[3]": {"tested_on": "diet induced obese hyperglycemic mice", "assay": "Experiment 2: oral glucose tolerance test after daily oral NFR-S-4 aqueous extract", "conditions": "positive control 250 mg/kg", "procedure": "as §1, §2\n(§4) In experiment 2, high fat diet-induced obese mice, animals were given daily oral administration of NFR-S-4 aqueous extract (100 or 300 mg/kg) or vehicle (water) for 28 days (n=10) (Table 6). A Metformin® antidiabetic drug group (250 mg/kg) was included as a positive control for the animal model (n=5). Aqueous extracts were prepared by a 5:1 extraction (solvent volume to fresh weight) in hot (100° C.) acidified water (pH 2 with H2SO4) to assist with anthocyanin stability during the extraction process. Mice were fasted overnight prior to an oral glucose tolerance test. For oral glucose tolerance tests, mice were given an oral glucose challenge (2 g/kg) and blood glucose levels were measured prior to glucose challenge and 30, 60, 90, 120 and 180 minutes after glucose administration (Table 6).\nas §3"}, "[4]": {"tested_on": "diet induced obese hyperglycemic mice", "assay": "Experiment 4: oral glucose tolerance test 2 h after oral S-13 lettuce", "conditions": "300 mg/kg oral 2 h before test", "procedure": "as §1, §2, §4\nIn experiment 4, mice were treated with S-13 lettuce (100 mg/kg), vehicle (66% labrasol), or Metformin® antidiabetic drug (300 mg/kg) by oral administration (n=8-10). After 2 h, mice were given an oral glucose tolerance test as described above (Table 8).\nas §3"}, "[5]": {"conditions": "6 h post treatment, 300 mg/kg oral"}}, "data": [{"compound": "CN(C)C(=N)N=C(N)N", "note": "[Metformin]", "values": [{"measurement": "FBG", "setting": "[1]; 0 h (immediately prior to treatment), 4 h fast, 300 mg/kg oral group", "value": "222 ± 19", "unit": "mg/dL"}, {"measurement": "% Decrease in FBG", "setting": "[1]; 0 h to 6 h, 300 mg/kg oral", "value": "39 +/− 14%"}, {"measurement": "FBG", "setting": "[1]; [5]", "value": "133 ± 25", "unit": "mg/dL"}, {"measurement": "FBG", "setting": "[2]; 0 (immediately prior to treatment), 4 h fast, 300 mg/kg oral group, mean +/- SD", "value": "214 ± 20", "unit": "mg/dL"}, {"measurement": "% Decrease in FBG", "setting": "[2]; 0 to 6 h, 300 mg/kg oral", "value": "31 +/− 19%"}, {"measurement": "FBG", "setting": "[2]; [5]", "value": "146 ± 34", "unit": "mg/dL"}, {"measurement": "FBG, oral glucose tolerance test", "setting": "[3]; 0 min, glucose 2 g/kg", "value": "181 ± 26", "unit": "mg/dL"}, {"measurement": "FBG, oral glucose tolerance test", "setting": "[3]; 30 min", "value": "298 ± 52", "unit": "mg/dL"}, {"measurement": "FBG, oral glucose tolerance test", "setting": "[3]; 60 min", "value": "244 ± 19", "unit": "mg/dL"}, {"measurement": "FBG, oral glucose tolerance test", "setting": "[3]; 90 min", "value": "247 ± 32", "unit": "mg/dL"}, {"measurement": "FBG, oral glucose tolerance test", "setting": "[3]; 120 min", "value": "249 ± 35", "unit": "mg/dL"}, {"measurement": "Area under the curve, oral glucose tolerance test", "setting": "[3]", "value": 30153}, {"measurement": "FBG, oral glucose tolerance test", "setting": "[4]; 0 min, glucose 2 g/kg", "value": "206 ± 45", "unit": "mg/dL"}, {"measurement": "Area under the curve, oral glucose tolerance test", "setting": "[4]", "value": 40683}, {"measurement": "FBG, oral glucose tolerance test", "setting": "[4]; 30 min", "value": "261 ± 51", "unit": "mg/dL"}, {"measurement": "FBG, oral glucose tolerance test", "setting": "[4]; 60 min", "value": "263 ± 69", "unit": "mg/dL"}, {"measurement": "FBG, oral glucose tolerance test", "setting": "[4]; 90 min", "value": "257 ± 62", "unit": "mg/dL"}, {"measurement": "FBG, oral glucose tolerance test", "setting": "[4]; 120 min", "value": "196 ± 31", "unit": "mg/dL"}, {"measurement": "FBG, oral glucose tolerance test", "setting": "[4]; 180 min", "value": "176 ± 30", "unit": "mg/dL"}]}]}
